Test results taken from patent US9823260B2, “Method to increase bioavailability of the delta-opioid receptor for management of pain and neuropsychiatric disorders” (priority 2014, dated 2017).
Read-outs that look alike come from different tables or passages of the source.

Experiments:
[1] = system: PC12 cells expressing SSF-DOR; assay: Fixed cell immunofluorescence assay of DOR localization (intracellular/Golgi retention) in PC12 cells expressing SSF-DOR; assay type: cell-based, rat; conditions: for amount of cells exhibiting intracellular DOR (retention) after inhibitor alone / percentage of cells with internal localization of DOR within the Golgi region: no NGF; for amount of cells exhibiting intracellular DOR (retention) after inhibitor alone: Wortmannin 10 μM, Chelerythrine 5 μM, PP2 10 μM, Akt ½ kinase inhibitor 1 μM; for percentage of cells with internal localization of DOR within the Golgi region: PI3K inhibitor 10 μM alone
Text: PC12 cells undergo neuronal specific signaling and differentiation in response to NGF.
To determine the mechanism regulating NGF-induced DOR retention, pharmacologic inhibition of known NGF-TrkA signaling molecules and quantification of the DOR localization via fixed cell immunofluorescence were employed. […]
Alternatively, it was chosen to use the neuroendocrine PC12 cell line as the model system.
To confirm that the NGF-induced internal localization is retention and not only due to increased protein production in response to NGF, the mechanistic evaluation was continued in the presence of Cycloheximide (CHX, 3 μg/mL) to inhibit new protein synthesis. […] Again referring to FIG. 3, for the evaluation of required downstream signaling targets, pharmacologic inhibition of TrkA effectors was performed to determine the pathway required for NGF-induced retention of DOR.
It was therefore sought to determine if inhibition of PI3K via treatment with Wortmannin alone was sufficient to induce intracellular retention of DOR using a fixed cell immunofluorescence assay.

[2] = system: SSF-DOR expressing PC12 cells; assay: Fluorescence antibody internalization assay of the surface pool of DOR; assay type: cell-based, rat; conditions: 1-hour treatment; NGF 100 ng/mL, Wortmannin 10 μM, LY294002 10 μM, 740Y^PDGFR 25 μg/mL, DADLE 10 μM
Method: To eliminate the possibility that surface localized DOR was being actively internalized following PI3K inhibition, a fluorescence antibody internalization assay was performed in combination with pharmacologic inhibition of PI3K. SSF-DOR expressing PC12 cells were incubated with a cell-impermeable primary M1-Alexa 647 conjugated antibody to label the surface pool of receptors. The cells were treated with pharmacologic agents for 1 hour as in previous experiments, and receptor internalization was determined by adding a cell-impermeable secondary Alexa-488 conjugated antibody that recognizes the M1 primary antibody. The amount of internalization is quantified using a Pearson's Correlation Coefficient to determine the colocalization of the primary and secondary antibodies.

DOR = assay: cAMP EPAC FRET biosensor assay of DOR signaling in live PC12 cells; assay type: cell-based, rat
[3] = system: primary Trigeminal Ganglion (TG) neurons transfected with SSF-DOR; assay: Fixed cell immunofluorescence of DOR localization in primary Trigeminal Ganglion neurons transfected with SSF-DOR; assay type: cell-based, mice
Text: To begin the example, confirmation that SSF-DOR was internally retained and localized with the Golgi complex in primary Trigeminal Ganglion (TG) sensory neurons was desired. First, primary TGs from adult mice were isolated and cultured. The SSF-DOR DNA construct was then transiently transfected into cultured TGs for subsequent localization analysis. Using a fixed-cell immunofluorescence assay, the location of SSF-DOR with an Alexa-488 conjugated anti-Flag M1 antibody was visualized, and the receptor signal was compared to an antibody against the Golgi marker GPP130. […] PC12 cells expressing SSF-DOR have a membrane localized expression pattern with little to no Golgi colocalization when analyzed via fixed cell fluorescence confocal microscopy. […]
By using the neuroendocrine PC12 cell line as our model system, PTEN inhibition was identified as a tool to prevent the internal retention of DOR following NGF administration. […] Graphical quantification of the percentage of DOR localized within the Golgi compared to the total cell DOR fluorescence is shown in FIG. 9 (top), and the Pearson's Correlation Coefficient between the DOR fluorescence and the GPP130 Golgi fluorescence in FIG. 9 (bottom).

[4] = system: SSF-MOR expressed in PC12 cells; assay: Fixed cell immunofluorescence assay of MOR localization in PC12 cells expressing SSF-MOR; assay type: cell-based, rat; conditions: 1-hour; NGF 100 ng/mL, Wortmannin 10 μM, LY294002 10 μM
Method: Previously, it was shown that the NGF-induced retention is specific to DOR and has minimal effect on MOR^37. It was therefore asked if retention of DOR via PI3K inhibition was also specific to DOR. To determine this specificity, the sufficiency of NGF, and PI3K inhibition by Wortmannin or LY294002, to promote intracellular retention of SSF-MOR expressed in PC12 cells was evaluated using the fixed cell immunofluorescence assay. Under basal no treatment conditions, SSF-MOR was prominently localized to the cell surface. Upon NGF (100 ng/mL), Wortmannin (10 μM), or LY294002 (10 μM) treatment for 1-hour, the majority of the SSF-MOR signal was localization to the cell surface with minimal overlap within the Golgi region.

[5] = with NGF and CHX, Y-27632 5 μM, U0126 10 μM, Akt1/2 Kinase Inhibitor 500 nM, U73122 10 μM, Chelerythrine 10 μM, PP2 500 nM

O=C(NCc1c(F)cccc1F)c1sccc1OCc1ccc(Cl)cc1Cl [AS1938909]
DOR retention in combination with NGF versus NGF treatment alone [1]: not significantly different
percentage of cells exhibiting Golgi localized DOR and percentage of DOR fluorescence within the Golgi ([1]; SHIP2 inhibitor AS1938909 10 μM only): significant increase

O=c1[nH]c2ccccc2n1C1CCN(Cc2ccc(-c3nc4cc5nc[nH]c5cc4nc3-c3ccccc3)cc2)CC1 [Akt1/2 Kinase Inhibitor]
amount of cells exhibiting intracellular DOR (retention) after inhibitor alone [1]: did not significantly increase
effect on NGF-induced retention of DOR [1, 5]: no statistical effect

C[C@@H]1C[C@@H]([C@H](O)CC2CC(=O)NC(=O)C2)C(=O)[C@@H](C)C1 [CHX, Cycloheximide]
percentage of SSF-DOR expressing PC12 cells with internal localization of DOR ([1]; CHX 3 μg/mL alone, 1 hour): 16%

COc1ccc2c(c[n+](C)c3c4cc5c(cc4ccc23)OCO5)c1OC [Chelerythrine]
amount of cells exhibiting intracellular DOR (retention) after inhibitor alone [1]: did not significantly increase
effect on NGF-induced retention of DOR [1, 5]: no statistical effect

CC(C)C[C@@H](NC(=O)[C@H](Cc1ccccc1)NC(=O)CNC(=O)[C@@H](C)NC(=O)[C@@H](N)Cc1ccc(O)cc1)C(=O)O [DADLE]
colocalization of primary and secondary antibody (Pearson's Correlation Coefficient; internalization of surface DOR) [2]: minimal antibody colocalization
inhibition of Forskolin induced cAMP by DADLE (DOR; 1 hour NGF pretreatment, Forskolin 5 μM, DADLE 10 μM): 81%

O=c1cc(N2CCOCC2)oc2c(-c3ccccc3)cccc12 [LY294002]
percentage of cells with internal localization of DOR within the Golgi region [1]: 88%

CC(C)(C)n1nc(-c2ccc(Cl)cc2)c2c(N)ncnc21 [PP2]
amount of cells exhibiting intracellular DOR (retention) after inhibitor alone [1]: did not significantly increase
effect on NGF-induced retention of DOR [1, 5]: no statistical effect

CC(C)(C)C(=O)Nc1ccc2c(c1)C(=O)C(=O)c1ccccc1-2 [SF1670]
effect of PTEN inhibitor on NGF-induced retention of DOR ([1]; with NGF 100 ng/mL, bpV(HOptic) 10 μM): prevented NGF-induced retention of DOR in a dose dependent manner
percentage of DOR fluorescence localized with the Golgi compared to the total DOR fluorescence ([3]; SF1670 alone and in combination with NGF): decreased significantly
inhibition of cAMP upon DADLE treatment after CNA blockade and PTEN inhibition (DOR; NGF pre-treatment, CNA blockade, SF1670 10 μM, Forskolin, DADLE): 80%
increase of cAMP inhibition over that obtained after CNA alone (DOR; SF1670 10 μM after CNA versus CNA alone): 61%

N#CC(=C(/N)Sc1ccccc1N)/C(C#N)=C(\N)Sc1ccccc1N [U0126]
effect on NGF-induced retention of DOR [1]: no statistical effect

COc1ccc2c(c1)CC[C@@H]1[C@@H]2CC[C@]2(C)[C@@H](NCCCCCCN3C(=O)C=CC3=O)CC[C@@H]12 [U73122]
effect on NGF-induced retention of DOR [1, 5]: no statistical effect

COC[C@H]1OC(=O)c2coc3c2[C@@]1(C)C1=C(C3=O)[C@@H]2CCC(=O)[C@@]2(C)C[C@H]1OC(C)=O [Wortmannin]
percentage of cells with internal localization of DOR ([1]; NGF 100 ng/ml and Wortmannin 10 μM): 87%
percentage of cells with internal localization of DOR within the Golgi region [1]: 88%
percentage of cells with intracellular retention of DOR ([1]; Wortmannin 10 μM in combination with NGF, 1-hour CHX chase): 97%

C[C@@H](N)[C@H]1CC[C@H](C(=O)Nc2ccncc2)CC1 [Y-27632]
effect on NGF-induced retention of DOR [1, 5]: no statistical effect

NGF: Nerve Growth Factor; initiates internal retention of DOR in PC12 cells via TrkA
percentage of cells with internal localization of DOR colocalized with the Golgi ([1]; NGF 100 ng/mL, 1 hour (FIG. 3 right)): 80%
percentage of transfected cells with internal localization of DOR ([1]; NGF 100 ng/mL, 1 hour, no CHX): 90%
percentage of cells imaged with internal localization of DOR ([1]; NGF added 1 hour before CHX addition and chased for 1 hour): 80%
colocalization of primary and secondary antibody (Pearson's Correlation Coefficient; internalization of surface DOR) [2]: very strong colocalization
change in intracellular retention of MOR (percentage of cells with Golgi localized MOR and percentage of MOR fluorescence within the Golgi) [4]: non-significant change
colocalization between DOR and GPP130 Golgi marker (Pearson's Correlation Coefficient) ([3]; NGF treatment): significant increase in colocalization
